Data on 21 molecules can be found in PMC5225183, “Fingerprinting of neurotoxic compounds using a mouse embryonic stem cell dual luminescence reporter assay” (Archives of Toxicology, 2016).

By EC20 is commonly meant the point of the concentration-response curve where the effect stands at 20%. A low value points to an effect from little substance. The term inhibition denotes the change of the read-out against control, counted positive when it falls.

Entries after “also recorded” stand apart in the source; their conditions may differ. Like-named read-outs stand apart in the source and are kept apart here.

Data set [1] relates to Tubulin α1 (Tα1) promoter. The data set can be described thus: cells. In a few lines: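 Mouse CGR8 ESCs carrying Tα1-firefly and EF1α-Renilla luciferase reporters, treated either undifferentiated (48 h exposure after 24 h plating) or as MS5-induced neurons (exposure day 6 to day 8). Dual-luciferase luminescence expressed as % promoter activity versus DMSO control wells; 5 µM methylmercury as positive control.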

For data set [2] the following is noted: Table S1, three classes; ref per compound in the footnotes of Table S1; cited from earlier work.
Data set [3] relates to ESCs and ESC-derived neurons. The data set can be described thus: Dual luminescence reporter test system, all readouts in ESCs and ESC-derived neurons. The method, boiled down: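 CGR8-2Luc mouse ESCs (dual reporter: Tα1-FLuc neural, EF1α-RLuc general) exposed 48 h after 24 h plating; ESC-derived neurons re-plated day 5 in N2/bFGF medium. Luciferase normalized to DMSO controls; PI (50 µg/ml, 2 h) measured DNA content as cytotoxicity. Curves scored by ≥30% significant change (ANOVA/Dunnett).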

Setting [4] is: ESC-derived neurons, 48 h exposure.
[5] abbreviates: ESCs and neurons, FLuc, RLuc, PI.
Setting [6] is: reporter activity changes in the non-cytotoxic concentration range, highest possible number 4.

Consider `C[C@]12CC[C@H](O)CC1=CC[C@@H]1[C@@H]2CC[C@]2(C)C(c3cccnc3)=CC[C@@H]12` [Abiraterone], for which the “LOAEL Neurons Tα1” value in data set [1] (setting [4]) is on record as 1 µM. Besides, in data set [2], the “class based on clinical evidence for neurotoxicity” value (“class based on clinical evidence” below) is recorded as “Possibly (developmental)”. Also, in data set [3] (mouse, 48 h), the “Number of non-cytotoxic changes” value came to 1 and the “concentration up to which no cytotoxicity in the PI assay” value is more than 100 µM.

Take `O=C(/C=C/c1cccc(S(=O)(=O)Nc2ccccc2)c1)NO` [Belinostat]: the “LOAEL Neurons Tα1” value in data set [1] (setting [4]) amounted to 0.0005 µM. Moreover, the “class based on clinical evidence” value in data set [2] is “Possibly (developmental)”. The “Number of non-cytotoxic changes” value in data set [3] (mouse, 48 h) was 1.

Consider `Nc1ccccc1NC(=O)c1ccc(CNC(=O)OCc2cccnc2)cc1` [Entinostat], for which, in data set [1] (setting [4]), the “LOAEL Neurons Tα1” value is given as 0.5 µM. In addition, in data set [3] (mouse, 48 h), the “Number of non-cytotoxic changes” value stood at 1.

On to `COc1cc2ncnc(Nc3ccc(F)c(Cl)c3)c2cc1OCCCN1CCOCC1` [Gefitinib], for which the “LOAEL Neurons Tα1” value in data set [1] (setting [4]) is listed as 50 µM. In data set [2], the “class based on clinical evidence” value is listed as “Possibly (developmental)”. In addition, in data set [3] (mouse, 48 h), the “Number of non-cytotoxic changes” value is on record as 0.

Consider `COC1=C2C[C@@H](C)C[C@H](OC)[C@H](O)[C@@H](C)/C=C(\C)[C@H](OC(N)=O)[C@@H](OC)/C=C\C=C(/C)C(=O)NC(=CC1=O)C2=O` [Geldanamycin], for which the “LOAEL Neurons Tα1” value in data set [1] (setting [4]) was 0.05 µM. Besides, in data set [2], the “class based on clinical evidence” value is listed as “Possibly (developmental)”. In addition, the “result in the dual luminescence reporter test system” value (“result” below) in data set [3] is “considerable cytotoxicity”. In data set [3] (in vitro system (neurons and ESCs)), this molecule displayed an EC20 of 1 to 10 nM. Also, the “Number of non-cytotoxic changes” value in data set [3] (mouse, 48 h) came out at 1.

On to `[Br][Hg][Br]` [Mercury bromide], for which the “LOAEL Neurons Tα1” value in data set [1] (setting [4]) amounted to 10 µM. Also, the “class based on clinical evidence” value in data set [2] is “Possibly (developmental)”. Moreover, the “Number of non-cytotoxic changes” value in data set [3] was 1.

In the case of `COCC(=O)O` [Methoxyacetic acid], the “LOAEL Neurons Tα1” value in data set [1] (setting [4]) was 50 µM. Moreover, the inhibition at 50 µM in data set [1] (Mus musculus, Neuron, read-out: inhibition of neuronal promoter activity) is approximately 40%. Also, the “class based on clinical evidence” value in data set [2] is given as “Possibly (developmental)”. Further, the “result” value in data set [3] (setting [5]) is listed as “very weak signal; also recorded: relatively weak signal”. Further, in data set [3] (setting [6]), the “Number of non-cytotoxic changes” value is 1.

`[CH3][Hg][Cl]` [Methylmercury]: the “LOAEL Neurons Tα1” value in data set [1] (setting [4]) is on record as 0.05 µM. In data set [2], the “class based on clinical evidence” value is “Well-established (developmental)”. Also, the “Number of non-cytotoxic changes” value in data set [3] (setting [6]) amounted to 1.

For the molecule `COC(=O)c1ccc2c(c1)NC(=O)/C2=C(\Nc1ccc(N(C)C(=O)CN2CCN(C)CC2)cc1)c1ccccc1` [Nintedanib], the “LOAEL Neurons Tα1” value in data set [1] (setting [4]) is 0.05 µM. For the same molecule, the “class based on clinical evidence” value in data set [2] is on record as “Possibly (developmental)”. In data set [3] (mouse, 48 h), the “Number of non-cytotoxic changes” value is 2.

As for `COc1ccc2[nH]c([S+]([O-])Cc3ncc(C)c(OC)c3C)nc2c1` (stereo not drawn) [Omeprazole], in data set [1] (setting [4]), the “LOAEL Neurons Tα1” value was more than 50 µM. For the same molecule, the “class based on clinical evidence” value in data set [2] is “Non-neurotoxic”. Besides, the “result” value in data set [3] was “negative”. The “Number of non-cytotoxic changes” value in data set [3] (mouse, 48 h) was found to be 0.

`Brc1ccc(Oc2cc(Br)c(Br)cc2Br)c(Br)c1` [PBDE-99]: the “LOAEL Neurons Tα1” value in data set [1] (setting [4]) was more than 50 µM. In data set [2], the “class based on clinical evidence” value is recorded as “Well-established (developmental)”. In addition, the “result” value in data set [3] (setting [5]) is “potentially neurotoxic”. For the same molecule, in data set [3] (setting [6]), the “Number of non-cytotoxic changes” value is 1.

`Cc1[nH]c2ccccc2c1CCNCc1ccc(/C=C/C(=O)NO)cc1` [Panobinostat]: the “effect on neural promoter activity in neurons” value in data set [1] is “inhibited at subnanomolar concentrations”. In addition, the “LOAEL Neurons Tα1” value in data set [1] (setting [4]) is 0.0005 µM. The “class based on clinical evidence” value in data set [2] is “Possibly (developmental)”. For the same molecule, in data set [3], the “result” value is “no enhancement of promoter activities under any condition”. Moreover, the “Number of non-cytotoxic changes” value in data set [3] (mouse, 48 h) came to 1.

Take `CC(C)NCC(O)COc1cccc2ccccc12` (stereo not drawn) [Propranolol]: the “LOAEL Neurons Tα1” value in data set [1] (setting [4]) was found to be 50 µM. In addition, in data set [2], the “class based on clinical evidence” value is given as “Non-neurotoxic”. In addition, the “Number of non-cytotoxic changes” value in data set [3] (mouse, 48 h) was 2.

On to `O=C(NC[C@H]1CN(c2ccc(N3CCOCC3=O)cc2)C(=O)O1)c1ccc(Cl)s1` [Rivaroxaban], for which the “LOAEL Neurons Tα1” value in data set [1] (setting [4]) was more than 10 µM. Besides, the “class based on clinical evidence” value in data set [2] is “Non-neurotoxic”. The “Number of non-cytotoxic changes” value in data set [3] (mouse, 48 h) is listed as 0.

Take `C/C(O)=C(\C#N)C(=O)Nc1ccc(C(F)(F)F)cc1` [Teriflunomide]: the “effect on neural promoter activity in neurons” value in data set [1] was “increase”. Also, the “LOAEL Neurons Tα1” value in data set [1] (setting [4]) was found to be 50 µM. For the same molecule, in data set [3], the “concentration range of various effects” value fell in the range of 4 to 40 µM. Besides, the “result” value in data set [3] (setting [5]) is reported as “no effects on general promoter activity and/or on PI fluorescence”. Besides, in data set [3] (setting [6]), the “Number of non-cytotoxic changes” value amounted to 1.

Take `C[CH2][Hg][S]c1ccccc1C(=O)[O-].[Na+]` [Thimerosal]: the “LOAEL Neurons Tα1” value in data set [1] is on record as 0.5 µM. The “class based on clinical evidence” value in data set [2] was “Possibly (developmental)”. Besides, the “Number of non-cytotoxic changes” value in data set [3] is listed as 0.

`O=c1[nH]c(=O)c2[nH]c(=O)[nH]c2[nH]1` [Uric acid]: the “LOAEL Neurons Tα1” value in data set [1] (setting [4]) is more than 50 µM. The “class based on clinical evidence” value in data set [2] is “Non-neurotoxic”. In addition, the “result” value in data set [3] (setting [5]) is reported as “negative”. In addition, the “Number of non-cytotoxic changes” value in data set [3] (setting [6]) worked out at 0.

For the molecule `CCCC(CCC)C(=O)O` [Valproic acid], in data set [1] (setting [4]), the “LOAEL Neurons Tα1” value worked out at 50 µM. In data set [2], the “class based on clinical evidence” value is “Well-established (developmental)”. Moreover, in data set [3] (mouse, 48 h), the “Number of non-cytotoxic changes” value was 2.

As for “Erythropoietin: EpoR agonist controlling erythropoiesis and neurogenesis; Peptide/Protein”, the “LOAEL Neurons Tα1” value in data set [1] (setting [4]) was more than 0.238 µM. For the same molecule, the “class based on clinical evidence” value in data set [2] is listed as “Non-neurotoxic”. Further, the “Number of non-cytotoxic changes” value in data set [3] (setting [6]) was 0.

In the case of Oxytocin, the “LOAEL Neurons Tα1” value in data set [1] (setting [4]) was more than 0.1 µM. Besides, the “class based on clinical evidence” value in data set [2] is recorded as “Non-neurotoxic”. Also, in data set [3] (setting [5]), the “result” value was “did not have any effects”. For the same molecule, in data set [3] (setting [6]), the “Number of non-cytotoxic changes” value was found to be 0.

B1: G-CSF: Hormone stimulating granulopoiesis; Peptide/Protein (protein, UniProt P09919 31-207, looked up)
Granulocyte …: TPLGPASSLPQSFLLKCLEQVRKIQGDGAALQEKLVSECATYKLCHPEELVLLGHSLGIPWAPLSSCPSQALQLAGCLSQLHSGLFLYQGLLQALEGISPELGPTLDTLQLDVADFATTIWQQMEELGMAPALQPTQGAMPAFASAFQRRAGGVLVASHLQSFLEVSYRVLRHLAQP
Consider B1, for which the “LOAEL Neurons Tα1” value in data set [1] (setting [4]) is more than 0.00266 µM. Further, the “class based on clinical evidence” value in data set [2] is recorded as “Non-neurotoxic”. In data set [3] (setting [6]), the “Number of non-cytotoxic changes” value worked out at 0.
